Experimental data as given in paper PMC3594701 (Journal of acquired immune deficiency syndromes (1999), 2011).
Marks after values point to notes of the source that are not given here.

Key:
[1] = Steady-state plasma pharmacokinetics; format: in vivo, human; conditions: for Cmax: GM Cmax
[2] = Steady-state intracellular; format: in vivo, human; conditions: IC (PBMC); for GM AUC: AUC0–12; for Cmax: GM Cmax
[3] = 10 HIV-infected individuals, 6 also on twice-daily darunavir/ritonavir; cited from earlier work
HIV = conditions: 800 mg once daily versus approved 400 mg twice-daily dose; cited from earlier work
[4] = IC accumulation: ratio of IC drug to drug in plasma; conditions: human, GM IC to Plasma Ratio
[5] = group 1, period 2 (day 35): raltegravir 400 mg twice daily + darunavir/ritonavir 800/100 mg once daily
[6] = group 1, period 2 (day 35): raltegravir 400 mg twice daily + darunavir/ritonavir 800/100 mg once daily, listed as raltegravir
[7] = group 2, period 2 (day 35): raltegravir 800 mg once daily + darunavir/ritonavir 800/100 mg once daily

GM Ctrough [1, 5]: 20 ng/mL
GM Ctrough [1, 6]: 20 (17–25) ng/mL
GM Ctrough [1, 7]: 11 ^* ng/mL
Cmax ([1]; human, group 1, period 2 (day 35): raltegravir 400 mg twice daily + darunavir/ritonavir 800/100 mg once daily): 438 ng/mL
concentration at 12 h ([1]; human, GM Ctrough, group 1, period 1 (day 21): raltegravir 400 mg twice daily, without darunavir/ritonavir): 23 ng/mL
concentration at 12 h ([1]; human, GM Ctrough, group 2, period 1 (day 21): raltegravir 400 mg twice daily, without darunavir/ritonavir): 28 ng/mL
Cmax ([1]; human, oral, 400 mg, group 1, period 1 (day 21): raltegravir 400 mg twice daily, without darunavir/ritonavir): 533 ng/mL
Cmax ([1]; human, oral, 400 mg, group 2, period 1 (day 21): raltegravir 400 mg twice daily, without darunavir/ritonavir): 361 ng/mL
Cmax ([1]; human, oral, group 2, period 2 (day 35): raltegravir 800 mg once daily + darunavir/ritonavir 800/100 mg once daily): 556 ng/mL
concentration at 12 h ([1]; human, oral, GM Ctrough, group 1, period 1 (day 21): raltegravir 400 mg twice daily, without darunavir/ritonavir): 23 ng/mL
concentration at 12 h ([1]; human, oral, GM Ctrough, group 2, period 1 (day 21): raltegravir 400 mg twice daily, without darunavir/ritonavir): 28 ng/mL
concentration at 24 h ([1]; human, oral, GM Ctrough, group 2, period 2 (day 35): raltegravir 800 mg once daily + darunavir/ritonavir 800/100 mg once daily): 11 ng/mL
GM AUC ([2]; group 1, period 1 (day 21): raltegravir 400 mg twice daily, without darunavir/ritonavir): 9010 ng/h/mL
GM AUC ([2]; group 1, period 1 (day 21): raltegravir 400 mg twice daily, without darunavir/ritonavir, listed as raltegravir): 9010 (7852–13,519) ng·h^−1·mL^−1
GM Ctrough [2, 5]: 105 ng/mL
GM Ctrough [2, 6]: 105 (51–295) ng/mL
GM AUC ([2]; group 2, period 1 (day 21): raltegravir 400 mg twice daily, without darunavir/ritonavir): 8780 ng/h/mL
GM AUC ([2]; group 2, period 1 (day 21): raltegravir 400 mg twice daily, without darunavir/ritonavir, listed as raltegravir): 8780 (7286–16,400) ng·h^−1·mL^−1
GM Ctrough [2, 7]: 22 ng/mL
Cmax ([2]; human, PBMC (intracellular), oral, 400 mg, group 2, period 1 (day 21): raltegravir 400 mg twice daily, without darunavir/ritonavir): 1870 ng/mL
Cmax ([2]; human, PBMC, 400 mg, group 1, period 1 (day 21): raltegravir 400 mg twice daily, without darunavir/ritonavir): 2310 ng/mL
concentration at 12 h ([2]; human, PBMC, GM Ctrough, group 1, period 1 (day 21): raltegravir 400 mg twice daily, without darunavir/ritonavir): 101 ng/mL
concentration at 12 h ([2]; human, PBMC, GM Ctrough, group 2, period 1 (day 21): raltegravir 400 mg twice daily, without darunavir/ritonavir): 115 ng/mL
Cmax ([2]; human, PBMC, oral, 400 mg, group 1, period 1 (day 21): raltegravir 400 mg twice daily, without darunavir/ritonavir): 2310 ng/mL
Cmax ([2]; human, PBMC, oral, group 1, period 2 (day 35): raltegravir 400 mg twice daily + darunavir/ritonavir 800/100 mg once daily): 2170 ng/mL
Cmax ([2]; human, PBMC, oral, group 2, period 2 (day 35): raltegravir 800 mg once daily + darunavir/ritonavir 800/100 mg once daily): 2820 ng/mL
concentration at 12 h ([2]; human, PBMC, oral, GM Ctrough, group 1, period 1 (day 21): raltegravir 400 mg twice daily, without darunavir/ritonavir): 101 ng/mL
concentration at 12 h ([2]; human, PBMC, oral, GM Ctrough, group 2, period 1 (day 21): raltegravir 400 mg twice daily, without darunavir/ritonavir): 115 ng/mL
concentration at 24 h ([2]; human, PBMC, oral, GM Ctrough, group 2, period 2 (day 35): raltegravir 800 mg once daily + darunavir/ritonavir 800/100 mg once daily): 22 ng/mL
Kp ([4]; PBMC (intracellular)/plasma, oral, 400 mg, AUC, group 1, period 1 (day 21): raltegravir 400 mg twice daily, without darunavir/ritonavir): 4.9
Kp ([4]; PBMC (intracellular)/plasma, oral, 400 mg, AUC, group 2, period 1 (day 21): raltegravir 400 mg twice daily, without darunavir/ritonavir): 5.6
Kp ([4]; PBMC (intracellular)/plasma, oral, 400 mg, Cmax, group 1, period 1 (day 21): raltegravir 400 mg twice daily, without darunavir/ritonavir): 4.6
Kp ([4]; PBMC (intracellular)/plasma, oral, 400 mg, Cmax, group 2, period 1 (day 21): raltegravir 400 mg twice daily, without darunavir/ritonavir): 5.5
Kp ([4]; PBMC (intracellular)/plasma, oral, 400 mg, Ctrough, group 1, period 1 (day 21): raltegravir 400 mg twice daily, without darunavir/ritonavir): 5.1
Kp ([4]; PBMC (intracellular)/plasma, oral, 400 mg, Ctrough, group 2, period 1 (day 21): raltegravir 400 mg twice daily, without darunavir/ritonavir): 4.6
Kp ([4]; intracellular (PBMC) / plasma, AUC (raltegravir), group 1, period 2 (day 35): raltegravir 400 mg twice daily + darunavir/ritonavir 800/100 mg once daily): 5.8
Kp ([4]; intracellular (PBMC) / plasma, AUC (raltegravir), group 2, period 2 (day 35): raltegravir 800 mg once daily + darunavir/ritonavir 800/100 mg once daily): 6
Kp ([4]; intracellular (PBMC) / plasma, oral, Cmax, group 1, period 2 (day 35): raltegravir 400 mg twice daily + darunavir/ritonavir 800/100 mg once daily): 5.6
Kp ([4]; intracellular (PBMC) / plasma, oral, Cmax, group 2, period 2 (day 35): raltegravir 800 mg once daily + darunavir/ritonavir 800/100 mg once daily): 6.8
Kp ([4]; intracellular (PBMC) / plasma, oral, Ctrough, group 1, period 2 (day 35): raltegravir 400 mg twice daily + darunavir/ritonavir 800/100 mg once daily): 4.5
Kp at 24 h ([4]; intracellular (PBMC) / plasma, oral, Ctrough, group 2, period 2 (day 35): raltegravir 800 mg once daily + darunavir/ritonavir 800/100 mg once daily): 2.4
Compound: Cc1nnc(C(=O)NC(C)(C)c2nc(C(=O)NCc3ccc(F)cc3)c(O)c(=O)n2C)o1 [Raltegravir, raltegravir]
decrease of plasma AUC [3]: 33%
virological response (HIV): did not show the same virological response
